Laboratory results as given in ChEMBL document CHEMBL1144956, “Chemical synthesis and cytotoxicity of dihydroxylated cyclopentenone analogues of neocarzinostatin chromophore” (Bioorg Med Chem Lett, 2003).

Columns and labels:
Assay type in all cases: functional, cell-based
[1] = tested on: K562; experiment: In vitro cytotoxic activity against human leukemic cell line K562 after incubation for 1 hour; details: K562, 1 h
[2] = tested on: A2780; experiment: In vitro cytotoxic activity against human tumor cell line A2780CisR after incubation for 96 hours; details: A2780, 96 h
[3] = tested on: A2780; experiment: In vitro cytotoxic activity against human tumor cell line A2780 after incubation for 96 hours; details: A2780, 96 h
[4] = tested on: CH1; experiment: In vitro cytotoxic activity against human tumor cell line CH1 after incubation for 96 hours; details: CH1, 96 h
[5] = tested on: HT-29; experiment: In vitro cytotoxic activity against human tumor cell line HT-29 after incubation for 96 hours; details: HT-29, 96 h
[6] = tested on: SK-OV-3; experiment: In vitro cytotoxic activity against human tumor cell line SKOV-3 after incubation for 96 hours; details: SK-OV-3, 96 h

| Compound | IC50 [1] [µM] | IC50 [2] [µM] | IC50 [3] [µM] | IC50 [4] [µM] | IC50 [5] [µM] | IC50 [6] [µM] |
| --- | --- | --- | --- | --- | --- | --- |
| O=C(O[C@@H]1C=C[C@H](O)[C@H]1O)c1c(O)ccc2ccccc12 | > 100 |  |  |  |  |  |
| COc1cc(C)c2ccc(O)c(C(=O)O[C@H]3[C@H](O)C=C[C@@H]3O)c2c1 | > 100 |  |  |  |  |  |
| COc1cc(C)c2ccc(O)c(C(=O)O[C@@H]3C(=O)C=C[C@H]3O)c2c1 | 4.5 | 9 | 9.4 | 11 | 13 | 7.2 |
| COc1cc(C)c2ccc(O)c(C(=O)O[C@@H]3C=CC(=O)[C@H]3O)c2c1 | 5 | 4 | 2.5 | 2.5 | 11 | 2.5 |
| O=C(O[C@@H]1C=CC(=O)[C@H]1O)c1c(O)ccc2ccccc12 | 6 | 8.6 | 2.7 | 4 | 12 | 2.3 |
| O=C(O[C@@H]1C(=O)C=C[C@H]1O)c1c(O)ccc2ccccc12 | 4 | 9.4 | 3.7 | 5.8 | 12 | 3.1 |
| O=C(O[C@@H]1C(=O)C(Br)=C[C@H]1O)c1c(O)ccc2ccccc12 | 5 | 13 | 9.4 | 11 | > 25 | 9.4 |
| O=C(O[C@H]1[C@H](O)C=C[C@@H]1O)c1c(O)ccc2ccccc12 | > 100 |  |  |  |  |  |
| O=C(O[C@@H]1C=C(Br)C(=O)[C@H]1O)c1c(O)ccc2ccccc12 | 3.5 | 17.5 | 10 | 11 | > 25 | 11 |
| COc1cc(C)c2ccc(O)c(C(=O)O[C@@H]3C=C[C@H](O)[C@H]3O)c2c1 | > 100 |  |  |  |  |  |
